Source: ChEMBL document CHEMBL1142615, “Polyoxygenated dysidea sterols that inhibit the binding of [I125] IL-8 to the human recombinant IL-8 receptor type A” (J Nat Prod, 2000)

Biological target: T1, C-X-C chemokine receptor type 1 (Homo sapiens, UniProt P25024)
T1 sequence (P25024 whole entry): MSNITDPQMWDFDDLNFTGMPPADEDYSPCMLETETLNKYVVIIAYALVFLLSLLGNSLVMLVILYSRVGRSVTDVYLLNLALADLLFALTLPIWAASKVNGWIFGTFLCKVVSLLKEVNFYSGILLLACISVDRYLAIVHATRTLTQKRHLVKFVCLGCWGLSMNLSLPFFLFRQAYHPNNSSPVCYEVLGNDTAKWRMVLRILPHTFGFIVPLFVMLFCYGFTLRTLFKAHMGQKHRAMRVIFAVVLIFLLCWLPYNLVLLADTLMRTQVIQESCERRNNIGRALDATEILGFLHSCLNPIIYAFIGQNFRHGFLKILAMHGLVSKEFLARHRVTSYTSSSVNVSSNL
Experiment: Displacement of [125I]IL8 from human recombinant IL8 type A receptor

CC(=O)O[C@H]1CC[C@]2(C)C3=C([C@H](OC(C)=O)[C@H](OC(C)=O)[C@@]2(O)C1)[C@@H]1CC[C@H]([C@H](C)CCCC(C)C)[C@@]1(C)C[C@H]3O
IC50: 5.5 µM

CC(=O)O[C@H]1C=C2[C@@H]3CC[C@H]([C@H](C)CCCC(C)C)[C@@]3(C)C[C@H]3O[C@@]23[C@@]2(C)CC[C@H](O)C[C@]12O
IC50: 4.5 µM

CC(=O)O[C@H]1C2=C([C@H](O)C[C@]3(C)[C@@H]([C@H](C)CCCC(C)C)CC[C@@H]23)[C@@]2(C)CC[C@H](O)C[C@]2(O)[C@H]1OC(C)=O
IC50: 20 µM
